Test results from the NIST ThermoML archive (doi:10.1016/j.jct.2016.05.001).

Assay: molar heat capacity at constant pressure
Details: 101.33 kPa, Crystal, Small (less than 1 g) adiabatic calorimetry

Nc1nc2ncc(CNc3ccc(C(=O)N[C@@H](CCC(=O)O)C(=O)O)cc3)nc2c(=O)[nH]1.O.O [folic acid dihydrate]
Details | molar heat capacity at constant pressure [J/K/mol]
71.99 K | 169.2
74 K | 173.6
76.06 K | 178.7
78.43 K | 183
80 K | 186.3
80.89 K | 187.7
82.9 K | 192.1
84.91 K | 195.6
86.92 K | 199
88.92 K | 202.8
90 K | 204.7
90.93 K | 206.4
92.93 K | 210.3
94.93 K | 214
96.93 K | 217.8
98.92 K | 222.6
100 K | 224.7
100.92 K | 227
103.4 K | 232.2
106.39 K | 237.8
109.39 K | 242.7
110 K | 244.1
112.4 K | 248.4
115.42 K | 253.8
118.43 K | 259.3
120 K | 262
121.45 K | 264.5
124.48 K | 269.8
127.5 K | 275.4
130 K | 280.1
130.53 K | 281.3
133.57 K | 286.9
136.6 K | 292.2
139.64 K | 297.9
140 K | 298.3
142.68 K | 303.3
145.73 K | 308.5
148.77 K | 314.4
150 K | 316.4
151.82 K | 319.5
154.87 K | 325
157.92 K | 330.4
160 K | 334.1
160.98 K | 335.8
164.06 K | 341.4
167.12 K | 346.3
170 K | 351.6
170.18 K | 351.6
173.24 K | 357.2
176.3 K | 362.7
179.37 K | 368.2
180 K | 369
182.43 K | 373.5
185.5 K | 378.4
188.56 K | 383.4
190 K | 386.3
191.63 K | 389.3
194.69 K | 394.9
197.76 K | 400.1
200 K | 403.7
200.82 K | 404.6
203.89 K | 410.4
207.45 K | 417
210 K | 421.1
211.53 K | 423.5
215.66 K | 431.6
219.74 K | 437.6
220 K | 438.6
223.82 K | 445.1
227.89 K | 452.3
230 K | 456.1
231.96 K | 459.5
236.04 K | 466.9
240 K | 473.7
240.12 K | 474.5
244.2 K | 481.2
248.27 K | 487.4
250 K | 491.2
252.34 K | 495.1
256.41 K | 502.6
260 K | 508.6
260.47 K | 509.7
264.53 K | 516.2
268.59 K | 523.3
270 K | 525.9
272.64 K | 530.3
273.15 K | 531.3
276.68 K | 537.3
280 K | 543.1
280.75 K | 545.1
284.78 K | 550.6
288.79 K | 558.6
290 K | 560.3
292.8 K | 565.2
296.8 K | 571.5
298.15 K | 574.4
300 K | 577.6
300.78 K | 578.9
306.79 K | 590
310 K | 595.2
312.24 K | 599.4
320 K | 613.1
320.03 K | 612.7
326.53 K | 625.5
330 K | 631.7
332.98 K | 637.3
333 K | 637.5
